Results on one molecule are retold here after patent publication US9371265B2, “Compositions and methods related to inhibitors of JAK kinase” (EP PHARMA, INC., priority 2012, dated 2016).

The target of one test is BTK (Homo sapiens, UniProt Q06187). In words: Kinase panel: BTK. Format: biochemical. The following applies: 10 μM EP009. On the procedure: (§1) Achieving JAK3 selectivity remains a significant challenge in the development of new small molecules for the treatment of cancer and immune-derived diseases. As such, the inventors employed cell-based screening assays of small-molecule libraries based upon the chemical scaffold of the established JAK3 inhibitor NC1153 (Stepkowski et al., J Immunol. (2005), 175(7):4236-4246) EP009 (FIG. 2A) was selected as a lead compound due to improved intrinsic stability (>95% purity in various solvents at 37° C. for 24 hours; FIG. 3) and high-degree of JAK3 selectivity. To test JAK3 versus JAK2 specificity of EP009, the IL-2/JAK3-dependent Kit225, and IL-3/JAK2-dependent BaF/3 cell lines were used. Kit225 and BaF/3 cells growing in the presence of IL-2 or IL-3, respectively, were treated with ascending concentrations of EP009 for 12 hours and cellular JAK3 and JAK2 tyrosine phosphorylation levels detected by Western blot analysis (FIGS. 2B and 2C). Following densitometric analysis, EP009 was determined to dose-dependently reduce IL-2-mediated JAK3 tyrosine phosphorylation with a cellular 50% inhibitory concentration (IC50) between 10 and 20 μM (FIG. 2B). […] To globally evaluate specificity, the inhibitory activity of EP009 was measured against a panel of protein kinases distributed throughout the kinome using the scanEDGE profiling service (KINOMEscan). […]

For the next test, the target named is PLK4 (Homo sapiens, UniProt O00444). In words: Kinase panel: PLK4. The conditions noted are these: 10 μM EP009. Format: biochemical. How it is done: as §1
For another test, the target named is PLK3 (Homo sapiens, UniProt Q9H4B4). In words: Kinase panel: PLK3. Format: biochemical. The conditions noted are these: 10 μM EP009. On the procedure:
as §1

For the next test, the system named is H2228. In words: H2228 cell viability (MTS). The following applies: 0-10 μM, 72 hours. Format: cell-based, human. How it is done: (§2) FIGS. 7A-7C. EP009 reduces ALCL cell viability through induction of caspase 3 mediated apoptosis. (A) SUP-M2, SU-DHL-1 or H2228 cells were cultured with increasing amounts of EP009 (0-10 μM) for 72 hours and cell viability measured with the MTS tetrazolium salt assay. Values represent mean absorbance (OD490-OD650 nm) normalized to vehicle (PBS) treated control cells, while error bars represent the standard deviation (n=3). (B) SU-DHL-1 cells were treated with vehicle (PBS) or increasing amounts of EP009 (0-50 μM) for 24 hours. Cells were then lysed, clarified, and subjected to Luminex multiplex analysis to detect activated caspase 3 and (C) cleaved PARP. Values represent MFI normalized to corresponding GAPDH MFI, while error bars represent the standard deviation (n=2). Representative data from three independent experiments are shown. Statistical significance was determined using Student's t-test. (*, p<0.05).
Cell viability was assessed with 3-(4,5-dimethylthiazol-2-yl)-5-(3-carboxymethoxyphenyl)-2-(4-sulfophenyl)-2H-tetrazolium salt (MTS) reagent (Promega) in triplicates according to the manufacturer's instructions. Three independent experiments were performed. The error bars represent standard deviation.

For another test, the target named is CDK11 (Homo sapiens, UniProt Q9BWU1). In words: Kinase panel: CDK11. Format: biochemical. The following applies: 10 μM EP009. How it is done: as §1
In another test the target is PDPK1 (Homo sapiens, UniProt O15530). In words: Kinase panel: PDPK1. Format: biochemical. The following applies: 10 μM EP009. On the procedure: as §1
A further test concerns caspase 3. In words: Caspase 3 activation in SU-DHL-1 cells (Luminex multiplex). Format: cell-based, human. The following applies: 24 hours, dose-dependent. How it is done: as §2
The MILLIPLEX MAP 8-plex Multi-Pathway Signaling Phosphoprotein kit (Millipore) was used to detect phosphorylated ERK1/2 (Thr185/Tyr187), STAT3 (Ser727), JNK1/2 (Thr183/Tyr185), p70 S6 kinase (Thr412), IκBα (Ser32), STAT5A/B (Tyr694/699), CREB (Ser133), and p38 (Thr180/Tyr182). The MILLIPLEX MAP 5-plex STAT Phosphoprotein kit (Millipore) was used to detect phosphorylated STAT1 (Tyr701), STAT2 (Tyr690), STAT3 (Tyr705), STAT5A/B (Tyr694/699), and STAT6 (Tyr641). […]

The next test deals with AURKA (Homo sapiens, UniProt O14965). In words: Kinase panel: AURKA. Format: biochemical. The conditions noted are these: 10 μM EP009. On the procedure:
as §1

Chain of AURKA (O14965 whole entry): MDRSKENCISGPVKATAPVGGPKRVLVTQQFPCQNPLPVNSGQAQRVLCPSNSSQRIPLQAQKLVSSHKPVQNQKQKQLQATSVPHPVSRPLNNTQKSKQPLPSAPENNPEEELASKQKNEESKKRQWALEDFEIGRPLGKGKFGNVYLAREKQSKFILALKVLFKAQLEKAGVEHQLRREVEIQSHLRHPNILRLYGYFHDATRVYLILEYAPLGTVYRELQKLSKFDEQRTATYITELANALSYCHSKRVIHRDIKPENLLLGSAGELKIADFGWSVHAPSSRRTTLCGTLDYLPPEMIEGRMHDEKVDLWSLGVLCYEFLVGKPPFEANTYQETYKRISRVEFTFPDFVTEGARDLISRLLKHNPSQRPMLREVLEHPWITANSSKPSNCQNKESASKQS
Chain of PLK4 (O00444 whole entry): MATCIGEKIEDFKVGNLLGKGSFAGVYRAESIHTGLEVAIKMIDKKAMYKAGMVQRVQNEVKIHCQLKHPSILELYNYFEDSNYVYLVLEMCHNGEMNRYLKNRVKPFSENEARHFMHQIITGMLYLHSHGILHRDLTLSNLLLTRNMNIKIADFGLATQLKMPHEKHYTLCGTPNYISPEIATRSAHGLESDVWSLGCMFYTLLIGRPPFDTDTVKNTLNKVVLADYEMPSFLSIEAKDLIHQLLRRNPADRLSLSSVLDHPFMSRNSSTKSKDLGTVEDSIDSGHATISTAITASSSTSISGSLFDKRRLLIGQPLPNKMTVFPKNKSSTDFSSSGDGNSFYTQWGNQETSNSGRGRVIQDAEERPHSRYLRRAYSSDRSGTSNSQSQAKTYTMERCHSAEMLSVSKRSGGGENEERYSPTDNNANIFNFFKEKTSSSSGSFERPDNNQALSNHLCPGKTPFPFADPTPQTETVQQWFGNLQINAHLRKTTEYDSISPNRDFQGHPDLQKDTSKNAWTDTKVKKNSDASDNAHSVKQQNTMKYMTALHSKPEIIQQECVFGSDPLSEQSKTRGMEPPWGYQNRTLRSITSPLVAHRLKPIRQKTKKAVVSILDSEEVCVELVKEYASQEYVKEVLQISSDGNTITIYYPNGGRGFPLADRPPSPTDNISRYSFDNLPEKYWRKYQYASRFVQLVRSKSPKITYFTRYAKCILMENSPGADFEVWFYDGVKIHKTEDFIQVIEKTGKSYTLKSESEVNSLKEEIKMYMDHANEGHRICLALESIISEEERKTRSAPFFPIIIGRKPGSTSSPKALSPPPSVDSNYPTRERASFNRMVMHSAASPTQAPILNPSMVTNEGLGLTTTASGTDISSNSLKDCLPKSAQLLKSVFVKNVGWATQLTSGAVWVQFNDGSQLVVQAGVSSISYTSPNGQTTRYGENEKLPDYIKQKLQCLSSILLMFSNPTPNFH
Chain of CDK11 (Q9BWU1 whole entry): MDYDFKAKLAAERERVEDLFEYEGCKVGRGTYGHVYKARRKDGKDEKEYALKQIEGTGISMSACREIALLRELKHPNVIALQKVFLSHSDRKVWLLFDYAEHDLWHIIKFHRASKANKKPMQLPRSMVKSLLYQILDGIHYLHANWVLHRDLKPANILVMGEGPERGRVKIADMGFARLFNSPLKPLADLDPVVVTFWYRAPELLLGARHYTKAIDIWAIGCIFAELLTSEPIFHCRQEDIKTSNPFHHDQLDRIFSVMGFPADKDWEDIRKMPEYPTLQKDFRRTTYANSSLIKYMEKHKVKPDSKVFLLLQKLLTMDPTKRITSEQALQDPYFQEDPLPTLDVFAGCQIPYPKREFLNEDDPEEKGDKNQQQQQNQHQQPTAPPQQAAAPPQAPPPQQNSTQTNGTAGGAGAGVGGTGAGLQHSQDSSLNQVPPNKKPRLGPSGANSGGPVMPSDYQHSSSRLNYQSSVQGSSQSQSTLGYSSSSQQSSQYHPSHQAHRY
Chain of PDPK1 (O15530 whole entry): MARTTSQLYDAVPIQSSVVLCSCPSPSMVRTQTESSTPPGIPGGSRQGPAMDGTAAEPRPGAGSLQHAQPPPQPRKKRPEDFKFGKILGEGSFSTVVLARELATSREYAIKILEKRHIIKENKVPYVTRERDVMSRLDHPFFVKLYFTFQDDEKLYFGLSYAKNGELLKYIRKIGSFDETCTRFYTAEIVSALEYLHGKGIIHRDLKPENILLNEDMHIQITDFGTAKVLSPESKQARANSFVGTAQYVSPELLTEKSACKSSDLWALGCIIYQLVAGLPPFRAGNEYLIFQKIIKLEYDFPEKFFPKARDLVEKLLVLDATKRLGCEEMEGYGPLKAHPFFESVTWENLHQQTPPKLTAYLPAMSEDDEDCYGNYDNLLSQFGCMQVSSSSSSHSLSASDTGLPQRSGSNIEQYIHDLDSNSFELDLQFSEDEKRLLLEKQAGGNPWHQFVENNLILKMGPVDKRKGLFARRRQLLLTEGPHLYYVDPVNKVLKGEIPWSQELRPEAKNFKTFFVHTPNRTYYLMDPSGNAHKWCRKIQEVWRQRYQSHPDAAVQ
Chain of PLK3 (Q9H4B4 whole entry): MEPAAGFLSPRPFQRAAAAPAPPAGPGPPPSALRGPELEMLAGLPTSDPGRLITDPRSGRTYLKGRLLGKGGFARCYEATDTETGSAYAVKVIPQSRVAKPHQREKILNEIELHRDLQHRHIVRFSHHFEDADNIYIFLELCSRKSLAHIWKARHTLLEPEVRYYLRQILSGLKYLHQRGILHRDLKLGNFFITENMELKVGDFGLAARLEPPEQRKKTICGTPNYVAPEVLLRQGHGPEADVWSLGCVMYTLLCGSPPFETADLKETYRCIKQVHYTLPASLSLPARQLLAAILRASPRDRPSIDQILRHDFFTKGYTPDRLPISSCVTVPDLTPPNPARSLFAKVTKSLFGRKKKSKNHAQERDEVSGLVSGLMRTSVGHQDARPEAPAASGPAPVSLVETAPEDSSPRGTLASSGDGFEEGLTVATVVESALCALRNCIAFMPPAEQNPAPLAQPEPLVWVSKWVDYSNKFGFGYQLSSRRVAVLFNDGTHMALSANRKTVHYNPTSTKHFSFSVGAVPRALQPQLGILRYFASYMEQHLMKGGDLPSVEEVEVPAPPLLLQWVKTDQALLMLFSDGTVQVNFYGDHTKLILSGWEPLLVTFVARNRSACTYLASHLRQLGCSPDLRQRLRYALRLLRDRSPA
Chain of BTK (Q06187 whole entry): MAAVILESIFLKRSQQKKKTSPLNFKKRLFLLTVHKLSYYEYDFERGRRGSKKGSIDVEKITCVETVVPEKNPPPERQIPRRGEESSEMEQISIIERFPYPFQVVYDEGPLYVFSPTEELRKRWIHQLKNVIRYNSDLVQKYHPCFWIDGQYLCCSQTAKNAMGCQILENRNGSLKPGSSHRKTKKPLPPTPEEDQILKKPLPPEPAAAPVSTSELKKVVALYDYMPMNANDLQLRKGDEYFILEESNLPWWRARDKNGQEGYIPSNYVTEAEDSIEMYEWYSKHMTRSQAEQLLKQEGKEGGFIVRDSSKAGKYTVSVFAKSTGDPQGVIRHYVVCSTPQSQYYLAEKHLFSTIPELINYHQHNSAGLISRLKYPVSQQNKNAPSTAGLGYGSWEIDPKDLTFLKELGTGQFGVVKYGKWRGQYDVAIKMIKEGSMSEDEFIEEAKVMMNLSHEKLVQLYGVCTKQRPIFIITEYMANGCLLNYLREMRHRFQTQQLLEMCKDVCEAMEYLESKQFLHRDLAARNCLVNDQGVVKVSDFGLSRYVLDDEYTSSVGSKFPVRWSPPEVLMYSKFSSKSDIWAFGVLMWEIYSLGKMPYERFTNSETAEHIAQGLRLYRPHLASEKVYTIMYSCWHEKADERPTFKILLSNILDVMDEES

On to `C=C1CCCCCCCCCC(CO)C1=O` (stereo not shown) [EP009, 2-(Hydroxymethyl)-12-methylenecyclododecanone], for which the “Kinase Activity (% of Control)” value is reported as 91 % of Control at BTK; 53 % of Control at PLK4 (PLK4); 92 % of Control at PLK3; 100 % of Control at CDK11; 100 % of Control at PDPK1; 55 % of Control at AURKA (AURKA). At PLK4, the “inhibition of Polo-like kinase 4 (PLK4)” value was 47 % inhibition. Besides, the “effect on H2228 cell viability” value in the test with H2228 is given as “no effect”. Also, in the test on caspase 3, the caspase-3 activation entry is “increased”. The “inhibition of Aurora kinase A (AURKA)” value against AURKA is reported as 45 % inhibition.
